Measured values published in patent US8598183B2, “Solid state forms of a potent HCV inhibitor” (Boehringer Ingelheim International GmbH, priority 2010, dated 2013).

Assays:
[1] = Powder dissolution of triturated mixtures in capsules in 500 mL pH 6.8 buffer; format: physicochemical; conditions: for % Release, Average of n = 2 (range) / % Release / % Release, average (range): capsule; for % Release: 200 mg drug + Pluronic acid 100 mg, n = 1
From the text: One class of solubilizer excipients, basifiers, act by increasing the microenvironment pH and thereby increasing the local solubility of the drug (for a drug containing an acid moiety). Another class of solubilizer excipients, surfactants, also act by increasing the local solubility of the drug. […] For example, an enhancement in dissolution was obtained when surfactants, for example, sodium lauryl sulfate or Vitamin E TPGS, were used in combination with basifiers, for example, L-arginine, meglumine or L-lysine. […] For example, only 1% drug release was obtained when Compound (1) sodium salt crystalline was present. The % drug release was 54% at 60 minutes in the presence of 100 mg Arginine alone and 59% in the presence of Sodium lauryl sulfate alone (Table 2). However, in presence of 100 mg of Arginine along with 100 mg of Sodium lauryl sulfate, the % drug release increased to 93% at 60 minutes (Table 3) indicating enhancement in dissolution when both surfactant and basifier were used in combination.

HCV infection = assay: Human clinical trials in HCV-infected patients; format: in vivo
[2] = Storage stability of concentrated supersaturated aqueous solutions; format: physicochemical; conditions: 10 month storage at room temperature
Method: This unique behavior of high solubility at high drug concentrations is most likely attributable to tendency of the drug substance to self-micellize. A CMC value of 41.4 mM (corresponding to 28 mg/mL) is estimated.

[3] = Solubility of Compound (1) in physiological pH range; thermodynamic solubility; format: physicochemical
Method: Doses of Compound (1) up to 400 to 600 mg per dose may be required to be delivered to obtain exposures necessary for sufficient efficacy in vivo. Based on thermodynamic solubility of Compound (1), solubility of 0.005-0.01 mg/ml is estimated for Compound (1) sodium salt.

[4] = Water content at variable humidity (adsorption curve of VTI measurement); format: physicochemical; conditions: 25° C.
Method: Bruker D-8 Advance X-Ray Powder Diffractometer in parallel beam mode with a scintillation detector and using a variable temperature/humidity stage. Humidity adjusted and equilibrated at 25° C., scans from 2-35° 2-theta, 0.05° 2-theta step size, 4 seconds/step At higher humidity (50% RH, and 85% RH) the diffraction lines in the resulting patterns are shifted consistent with lattice expansion to accommodate more water in the lattice. The amount of water at 50% RH based on the adsorption curve of the VTI measurement is 1.7%, and the amount of water at 85% RH is 4.5%. When the sample is exposed to ambient conditions after high humidity the resulting diffraction pattern is again consistent with that of the starting material.

[5] = Powder dissolution / solubility of Compound (1) sodium salt in water at different concentrations; format: physicochemical; conditions: for % dissolved / CMC value: water; for CMC value: estimated
Method: Based on thermodynamic solubility of Compound (1), solubility of 0.005-0.01 mg/ml is estimated for Compound (1) sodium salt. […] This unique behavior of high solubility at high drug concentrations is most likely attributable to tendency of the drug substance to self-micellize. A CMC value of 41.4 mM (corresponding to 28 mg/mL) is estimated.

Cn1c(C2(NC(=O)c3ccc4c(C5CCCC5)c(-c5ncc(Br)cn5)n(C)c4c3)CCC2)nc2ccc(/C=C/C(=O)[O-])cc21.[Na+] [Compound (1) sodium salt]
% Release, Average of n = 2 (range) ([1]; 200 mg drug + Meglumine + SDS (100 mg + 100 mg), 15 min): 81 (79-83) % | % Release, Average of n = 2 (range) ([1]; 200 mg drug + Meglumine + SDS (100 mg + 100 mg), 30 min): 87 (86-88) % | % Release, Average of n = 2 (range) ([1]; 200 mg drug + Meglumine + SDS (100 mg + 100 mg), 60 min): 83 (80-87) % | % Release, Average of n = 2 (range) ([1]; 200 mg drug + Meglumine + SDS (100 mg + 100 mg), 90 min): 86 (85-87) % | % Release, Average of n = 2 (range) ([1]; 200 mg drug + Meglumine + VitE TPGS (40 mg + 20 mg), 15 min): 52 (33-70) % | % Release, Average of n = 2 (range) ([1]; 200 mg drug + Meglumine + VitE TPGS (40 mg + 20 mg), 30 min): 73 (73-73) % | % Release, Average of n = 2 (range) ([1]; 200 mg drug + Meglumine + VitE TPGS (40 mg + 20 mg), 60 min): 73 (73-74) % | % Release, Average of n = 2 (range) ([1]; 200 mg drug + Meglumine + VitE TPGS (40 mg + 20 mg), 90 min): 71 (70-72) % | % Release, Average of n = 2 (range) ([1]; 200 mg drug + Meglumine + VitE TPGS (100 mg + 100 mg), 15 min): 81 (81-81) % | % Release, Average of n = 2 (range) ([1]; 200 mg drug + Meglumine + VitE TPGS (100 mg + 100 mg), 30 min): 85 (84-86) % | % Release, Average of n = 2 (range) ([1]; 200 mg drug + Meglumine + VitE TPGS (100 mg + 100 mg), 60 min): 86 (84-87) % | % Release, Average of n = 2 (range) ([1]; 200 mg drug + Meglumine + VitE TPGS (100 mg + 100 mg), 90 min): 82 (80-84) % | % Release ([1]; 90 (infinity)): 13% | % Release ([1]; 15 min): 3% | % Release ([1]; 30 min): 12% | % Release ([1]; 60 min): 12% | % Release, average (range) ([1]; 200 mg drug + SDS 100 mg, 90 (infinity), n = 2): 49 (45-53) % | % Release, average (range) ([1]; 200 mg drug + SDS 100 mg, 15 min, n = 2): 57 (56-57) % | % Release, average (range) ([1]; 200 mg drug + SDS 100 mg, 30 min, n = 2): 61 (60-63) % | % Release, average (range) ([1]; 200 mg drug + SDS 100 mg, 60 min, n = 2, listed as Compound (1) Na Salt): 59 (58-60) % | % Release, average (range) ([1]; 200 mg drug + SDS 100 mg, 60 min, n = 2, listed as Compound (1) sodium salt crystalline): 59% | % Release, average (range) ([1]; 200 mg drug + Tris 100 mg, 90 (infinity), n = 3): 41 (33-46) % | % Release, average (range) ([1]; 200 mg drug + Tris 100 mg, 15 min, n = 3): 40 (34-43) % | % Release, average (range) ([1]; 200 mg drug + Tris 100 mg, 60 min, n = 3): 44 (35-48) % | % Release, average (range) ([1]; 200 mg drug + Vit E TPGS 100 mg, 90 (infinity), n = 2): 27 (27-27) % | % Release, average (range) ([1]; 200 mg drug + Vit E TPGS 100 mg, 15 min, n = 2): 24 (24-24) % | % Release, average (range) ([1]; 200 mg drug + Vit E TPGS 100 mg, 30 min, n = 2): 27 (27-27) % | % Release, average (range) ([1]; 200 mg drug + Vit E TPGS 100 mg, 60 min, n = 2): 27 (27-27) % | % Release, average (range) ([1]; Drug alone 200 mg, 90 (infinity), n = 2): 1 (1-2) % | % Release, average (range) ([1]; Drug alone 200 mg, 15 min, n = 2): 1 (1-1) % | % Release, average (range) ([1]; Drug alone 200 mg, 30 min, n = 2): 1 (1-1) % | % Release, average (range) ([1]; Drug alone 200 mg, 60 min, n = 2): 1 (1-2) % | % drug release ([1]; drug alone, no basifier or surfactant, time not stated): 1% | effectiveness in treating HCV-infected patients (HCV infection): demonstrated effectiveness | precipitation of highly concentrated supersaturated solutions [2]: no precipitation observed | solubility estimated based on thermodynamic solubility of Compound (1) [3]: 5 to 10 µg/mL | amount of water ([4]; 50% RH): 1.7% | amount of water ([4]; 85% RH): 4.5% | dissolution in water ([5]; concentrations exceeding the CMC value): dissolves completely | % dissolved ([5]; conc 0.1 mg/ml): 13.4% | % dissolved ([5]; conc 0.3 mg/ml): 15.0% | % dissolved ([5]; conc 1.0 mg/ml): 15.4% | % dissolved ([5]; conc 3.0 mg/ml): 46.6% | % dissolved ([5]; conc 10.0 mg/ml): 90.0% | % dissolved ([5]; conc 30.0 mg/ml): 100.0% | % dissolved ([5]; conc 100.0 mg/ml): 100.0% | % dissolved ([5]; conc 200.0 mg/ml): 100.0% | % dissolved ([5]; concentrations ≦1 mg/mL): 15% | CMC value [5]: 41.4 mM | CMC value ([5]; corresponding to the mM value): 28 mg/mL
